Source: publication PMC4418468 (BioTechniques, 2009)

Target: CXCR7 (Homo sapiens, UniProt P25106)
Assay: competition of CXCL12-Gaussia luciferase binding to intact cells at […] °C
Format: cell-based

CXCR7, sequence (P25106 whole entry): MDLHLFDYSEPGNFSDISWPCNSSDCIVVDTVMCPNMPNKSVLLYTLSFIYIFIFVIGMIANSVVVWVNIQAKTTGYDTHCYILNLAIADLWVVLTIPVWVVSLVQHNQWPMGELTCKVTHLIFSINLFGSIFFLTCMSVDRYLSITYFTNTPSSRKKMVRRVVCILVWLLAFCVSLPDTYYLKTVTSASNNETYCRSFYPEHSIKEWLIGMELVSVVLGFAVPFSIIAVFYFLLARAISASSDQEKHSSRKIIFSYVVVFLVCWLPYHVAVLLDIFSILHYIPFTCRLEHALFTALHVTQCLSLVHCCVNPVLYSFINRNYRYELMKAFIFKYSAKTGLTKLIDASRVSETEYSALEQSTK

Substance: CCX733
- EC50: ~0.018 µM

Substance: CCX754
- EC50: ~0.25 µM
